# Test results: patent publication US20040224898A1, “Compositions and methods for promoting lipid mobilization in humans” (priority 2002, published 2004)
# Tests used:
# Type in all cases: cell-based
# human adipocytes [1] = experiment: Glycerol release assay
# Experimental: (§1) Human pre-adipocytes were isolated by liposuction and maintained in AGM for three weeks in order to permit the pre-adipocytes to differentiate to become mature adipocytes. AGM was removed, and adipocytes were incubated in Krebs-Ringers buffer comprising 0.1% fatty acid-free BSA at 37° C. for five hours in the presence of selected concentrations (10^−9 to 10^−5 molar) of one of Schistocera gregaria AKH II, cockroach hypertrehalosemic factor (obtained from Sigma Chemical Co, St. Louis, Mo., catalog number P0175), and Locusta migratoria AKH I (obtained from American Peptide Co., Sunnyvale, Calif., catalog number 60-9-18). Glycerol released from the adipocytes was assayed using a commercially available kit (GPO-trinder assay kit available form Sigma Chemical Company, St. Louis, Mo.).
# A similar experiment was performed, in which glycerol release from adipocytes was assessed in the presence of the Locusta migratoria AKH I or the cockroach hypertrehalosemic factor or in the presence of isoproterenol.
# human adipocytes [2] = experiment: Effect of propanolol on agent-induced glycerol release; settings: agent 10 micromolar
# Experimental: as §1
# Glycerol release assays were performed as described in Example 2, except that the assays were performed using single selected concentrations of one of cockroach hypertrehalosemic factor, Locusta migratoria AKH I, and isoproterenol and multiple selected concentrations of propanolol.
# human adipocytes [3] = experiment: Release of tritium label from radiolabeled palmitate (lipid mobilizing activity); settings: for % Tritium Label Release with Agent: 4 hours, 37° C., Table 6 experiment
# Experimental: Lipid mobilizing activity was assessed by assaying release of tritium label from radiolabeled palmitate. This assay was performed by maintaining human pre-adipocytes in Adipocyte Growth Medium (AGM), which is Dulbecco's Modified Eagle's Medium (DMEM) mixed 1:1 by volume with Ham's F-10 medium. Ham's F-10 medium comprises 15 millimolar HEPES buffer adjusted to pH 7.4 and supplemented with biotin, pantothenate, human recombinant insulin, dexamethasone, fungicide, bactericide, and 3% (v/v) fetal bovine serum). Pre-adipocytes differentiated to become mature adipocytes by three weeks of maintenance in AGM. On the day prior to assay, the adipocytes were washed and incubated overnight in Krebs-Ringers buffer comprising 0.1% fatty acid-free bovine serum albumin (BSA) and comprising 1 microCurie per milliliter of tritiated (9,10-^3H) palmitate. The following day, the medium was removed, and the cells were washed three times […]. Isoproterenol (0 to 5×10^−8 molar), Schistocera gregaria AKH II (0 to 5×10^−5 molar), or Krebs-Ringer buffer (with 0.1% fatty acid-free BSA) containing neither of these was added to the cell suspension in a volume of 150 microliters. The suspensions were incubated for 4 hours at 37° C., and then 100 microliters of each sample was subjected to scintillation counting to detect released label in the supernatant. The total amount of label incorporated was determined for each well by solubilizing the cells using 1% sodium dodecyl sulfate and subjecting the entire contents of the well to scintillation counting. Fractional release of label was calculated by dividing the amount of label detected in cell supernatant by the total amount of label detected in the supernatant and in the cells remaining in the well, and percentage release was calculated by multiplying fractional release by 100.
# A similar study was done using the same methods, except that cockroach hypertrehalosemic factor (0 to 5×10^−5 molar) was used in place of S. gregaria AKH II.
# A similar tritium label release experiment performed using Heliothis zea AKH II and Locusta migratoria, except that a two-hour incubation period was used in place of a 4 hour incubation period.
sequence,measurement,setting,value
"EVNFSPGWGT (listed as Gromphadorhina portentosa) [cockroach hypertrehalosemic factor, insect AKH family peptide, Sigma Chemical Co. catalog number P0175]",Glycerol Release with Agent (medium concentration in millimolar),"human adipocytes [1]; agent 1 × 10^−5, Table 9 experiment",0.1515 ± 0.0155 millimolar
same,Glycerol Release with Agent (medium concentration in millimolar),"human adipocytes [1]; agent 1 × 10^−5 molar, five hours, 37° C., Table 8 experiment",1.124 millimolar
same,Glycerol Release with Agent (medium concentration in millimolar),"human adipocytes [1]; agent 1 × 10^−6, Table 9 experiment",0.1216 ± 0.0103 millimolar
same,Glycerol Release with Agent (medium concentration in millimolar),"human adipocytes [1]; agent 1 × 10^−6 molar, five hours, 37° C., Table 8 experiment",0.555 millimolar
same,Glycerol Release with Agent (medium concentration in millimolar),"human adipocytes [1]; agent 1 × 10^−7, Table 9 experiment",0.0944 ± 0.00166 millimolar
same,Glycerol Release with Agent (medium concentration in millimolar),"human adipocytes [1]; agent 1 × 10^−7 molar, five hours, 37° C., Table 8 experiment",0.527 millimolar
same,Glycerol Release with Agent (medium concentration in millimolar),"human adipocytes [1]; agent 1 × 10^−8, Table 9 experiment",0.0817 ± 0.0113 millimolar
same,Glycerol Release with Agent (medium concentration in millimolar),"human adipocytes [1]; agent 1 × 10^−8 molar, five hours, 37° C., Table 8 experiment",0.451 millimolar
same,Glycerol Release with Agent (medium concentration in millimolar),"human adipocytes [1]; agent 1 × 10^−9 molar, five hours, 37° C., Table 8 experiment",0.603 millimolar
same,Ability to promote lipid mobilization in human adipocytes,human adipocytes [1]; conclusion of Example 2,able to promote lipid mobilization
same,Glycerol Release with Agent (medium concentration in millimolar),human adipocytes [2]; propanolol 0 molar,0.1515 ± 0.0155 millimolar
same,Glycerol Release with Agent (medium concentration in millimolar),human adipocytes [2]; propanolol 1 × 10^−5 molar,0.2033 ± 0.0134 millimolar
same,Glycerol Release with Agent (medium concentration in millimolar),human adipocytes [2]; propanolol 1 × 10^−6 molar,0.1370 ± 0.0170 millimolar
same,Glycerol Release with Agent (medium concentration in millimolar),human adipocytes [2]; propanolol 1 × 10^−7 molar,0.1161 ± 0.0232 millimolar
same,% Tritium Label Release with Agent,human adipocytes [3]; agent 1 × 10^−5 molar,9.08%
same,% Tritium Label Release with Agent,human adipocytes [3]; agent 1 × 10^−6 molar,8.77%
same,% Tritium Label Release with Agent,human adipocytes [3]; agent 1 × 10^−7 molar,7.17%
same,% Tritium Label Release with Agent,human adipocytes [3]; agent 1 × 10^−8 molar,7.24%
same,% Tritium Label Release with Agent,human adipocytes [3]; agent 1 × 10^−9 molar,6.88%
same,% Tritium Label Release with Agent,human adipocytes [3]; agent 1 × 10^−10 molar,7.21%
same,% Tritium Label Release with Agent,human adipocytes [3]; agent 5 × 10^−5 molar,9.7%
same,% Tritium Label Release with Agent,human adipocytes [3]; agent 5 × 10^−6 molar,9.36%
same,% Tritium Label Release with Agent,human adipocytes [3]; agent 5 × 10^−7 molar,8.08%
same,Ability to mobilize lipids in adipocytes,"human adipocytes [3]; conclusion of Example 1, murine adipocytes",able to mobilize lipids
